Reference: US4032656A, “Aromatic prostaglandin derivatives” (SmithKline Corporation, priority 1975, dated 1977)
pIC50: −log10 of the molar value.

Key:
[1] = system: prostaglandin synthesis; test: Inhibition of prostaglandin synthesis (arachidonic acid-dependent formation of adrenochrome from L-epinephrine during prostaglandin biosynthesis; Takeguchi and Sih); assay type: biochemical; settings: for pIC50: read-out: ID50 (the source's name)
Source text: The prostaglandin synthesis inhibition method as employed is reported by Takeguchi and Sih, Prostaglandins, 2, 169, 1972. The principle entails the arachidonic acid-dependent formation of adrenochrome from L-epinephrine during prostaglandin biosynthesis. Indomethacin, phenylbutazone and aspirin were used as reference compounds.

[2] = system: PGE2 diarrhea in mice; test: Antagonism of diarrhea induced by prostaglandin E2 (PGE2); assay type: in vivo; settings: 20 mg./kg., subcutaneously 15 minutes prior to intraperitoneal PGE2, examined every 15 minutes for one hour
Description: The antagonism of diarrhea induced by prostaglandin E2 (PGE2) was determined by employing the modified standard animal pharmacological test procedure as reported in Intra Science Chem. Rept, 6:1-9, 1972 and Annals of the New York Academy of Sciences, 180:386-95, 1971. Briefly the test comprises administering the test compounds subcutaneously 15 minutes prior to an intraperitoneal injection of PGE2. Each animal is examined for diarrhea (which results after the administration of PGE2) every 15 minutes for one hour post-drug. Polyphloretin phosphate and 7 oxa-13-prostynoic acid, both well known antagonists of prostaglandin induced diarrhea, were employed as reference compounds.

[3] = prostaglandin synthesis inhibition

| Compound | pIC50 [1, 3] | inhibition of PGE2 diarrhea in mice [2] | other results |
| --- | --- | --- | --- |
| CC(=O)Oc1ccccc1C(=O)O [aspirin, reference compound] | 2.43 | – | – |
| CCCCCC(O)/C=C/c1ccccc1CCCCCCC(=O)O (stereo not drawn) [1-(6-carboxyhexyl)-2-(3-hydroxy-trans-1-octenyl)benzene] | 3.39 | – | inhibition of prostaglandin synthesis ([1]; at 1000 μM): 100%; potency as inhibitor relative to aspirin ([1]; ratio of ID50's, prostaglandin synthesis inhibition, vs aspirin): nine times as potent; potency as inhibitor relative to phenylbutazone ([1]; ratio of ID50's, prostaglandin synthesis inhibition, vs phenylbutazone): twice as potent |
| polyphloretin phosphate [reference compound] | – | 36% | – |
| CCCCCC(O)/C=C/c1ccccc1CCCCCCC(=O)OC (stereo not drawn) [1-(6-carbomethoxyhexyl)-2-(3-hydroxy-trans-1-octenyl)benzene] | – | 53% | – |
| CCCCC1C(=O)N(c2ccccc2)N(c2ccccc2)C1=O [phenylbutazone, reference compound] | 3.06 | – | – |
